Source: patent publication US8518884B2, “Methods for treating atrial or ventricular arrhythmias by administering a G-protein alpha inhibitor” (Northwestern University, priority 2008, dated 2013)
“Also recorded” adds a separate entry of the source. Ends that are not written are not given here.

Columns and labels:
[1] = system: M2R-stimulated Gi activation; experiment: Cholinergic (CCh) modulation of Ca2+ transients in isolated canine left atrial myocytes; type: cell-based
Source text: (§1) Cardiac myocytes were isolated from the canine left atrium, loaded with fluo-4 (fluorescent Ca^2+ indicator), and electrically field-stimulated. […] The effects can be summarized quantitatively (SEE FIG. 12B).

[2] = system: βAR-stimulated Gs activation; experiment: β-adrenergic (ISO) modulation of Ca2+ transients in isolated canine left atrial myocytes; type: cell-based; conditions: 1 μM ISO (βAR saturating); within 20-30 seconds
Source text: as §1

[3] = system: left atrium; experiment: Functional studies in pacing-induced CHF and control canine subjects: left atrial ERPs under autonomic manipulation; type: in vivo; conditions: both groups (CHF and control)
Method: Canine subjects were divided into three groups. In group 1, CHF was induced by rapid ventricular pacing for 4 weeks (i.e. when the animals began to develop clinical heart failure. In group 2, pacing was performed for only 3 weeks. Group three were control canine subjects not subjected to rapid ventricular pacing. At the end of follow up period, high-density epicardial mapping was performed in the PVs, the PLA and the LAA. ERPs were obtained at multiple sites under the following conditions: a) baseline (BSL), b) left cervical vagal stimulation at 20 Hz (VS), c) beta-stimulation with isoproterenol (ISO), d) beta-blockade with propranolol (PROP) and e) beta-blockade+vagal stimulation (P+VS). VS caused significant mean ERP shortening in all three groups. […] PROP increased the VS effect on ERP in normal controls, but produced an attenuation of this effect in the CHF group (SEE FIG. 37). In this CHF model, after 4 weeks of pacing, an increased vagal effect on atrial refractoriness, an increased cumulative sympathetic effect, and a change in the sympatho-vagal interactions of the left atrium were observed. After 3 weeks of pacing, there is pronounced autonomic remodeling, with evidence of P as well S nerve upregulation in the PVs and left atrium. Both P and S upregulation are more pronounced in the PLA (and to a lesser extent in the PVs) than in the rest of the left atrium. While vagal responsiveness in the left atrium is unaltered at 3 weeks of pacing, it increases after 4 weeks of pacing. […] The autonomic remodeling becomes more pronounced with increasing duration of pacing. […] The increase in β1 binding is consistent with the increase in sympathetic innervation. […] The P upregulation noted in the left atrium in CHF is a compensatory response to S upregulation that occurs in response to CHF. […] However, since normal atria are more densely innervated with vagal fibers (than the ventricle) and also contain a significant amount of IKAch, the compensatory response is likely to be more vigorous in the atrium. The compensatory increase in vagal innervations, and resulting increase in IKAch, may contribute to increased AF substrate.

[4] = system: posterior left atrium (PLA); experiment: Topical tropicaimide on the PLA: vagal stimulation (VS)-induced ERP shortening and AF inducibility; type: in vivo, canine
Method: P nerve fibers, and related muscarinic receptors, are preferentially located in the PLA and selective cholinergic blockade in the PLA can be successfully performed to alter vagal AF substrate. PLA, PVs and left atrial appendage (LAA) in canine subjects were immunostained for S nerves (dopamine beta-hydroxylase), P nerves (acetylcholine esterase), and M2 receptors. Epicardial electrophysiologic mapping was performed in 7 additional canine subjects. The PLA was the most richly innervated with nerve bundles containing P and S fibers (PV=0.9±1, PLA=3.2±2.5, LAA=0.17±0.3/cm^2; p<0.001); nerve bundles were located in fibrofatty tissue as well as in surrounding myocardium. P predominated over S fibers within bundles (P/S: PV=4.4, PLA=7.2, LAA=5.8). M2 distribution was also most pronounced in the PLA (M2 stained cells/cm^2: PLA=17.8±8.3, PV=14.3±7.3, LAA=14.5±8, p=0.012). A particularly high concentration of P fibers was found in the ligament of Marshall (in the PLA). The ligament of Marshall could be traced back to a major branch of the left cervical vagus nerve. The nerve in turn innervates the PVs and the rest of the PLA. The PLA surface is stained for acetylcholinesterase. […] A small nerve branch (N) originating in the LOM is seen to innervate the LSPV. […] Cholinergic nerves from the PLA fat pad (PFP) can be seen to innervate the LIPV. […] 1% tropicaimide was then applied topically to the PLA.
Using the canine model outlined below, 1% tropicaimide (a cholinergic blocker) was applied topically to the epicardial aspect of the PLA in canine subjects. Effective refractory periods were measured at multiple sites in the PLA a) at baseline, b) after left vagal stimulation, c) after tropicaimide application to the PLA and d) in the presence of vagal stimulation after tropicaimide application. […] The robust autonomic profile of the PLA and its role in AF (both in normal as well as diseased hearts), thereby making it an attractive target for autonomic manipulation by regional delivery of Gα C-terminal peptides. […]

[5] = system: Gαo1; experiment: Gαo1 minigene in the PLA: vagal and CCh induced ERP shortening; type: in vivo, dog; conditions: 10 mg minigene in PLA; day 3; compared to GαR dogs
Method: This Example describes the use of a Gαo1 inhibitor to treat arrhythmia is a subject. In one animal, the following was performed: • Day 1: Open-chest mapping was performed via a left lateral thoracotomy. 10 mg of minigene expressing Gαo1 peptide was then injected in the PLA, followed by electroporation. • Day 3: A left lateral thoracotomy was performed again. The left vagus nerve was isolated. ERPs were measured in the PLA, PV and LAA in the absence and presence of vagal stimulation. Data from the above animal was compared with other dogs that received other minigenes (i.e. Gαi2, Gαi2+Gαo1 and GαR (see Aistrup et al, Heart Rhythm 2011)

[6] = system: Gαi; experiment: cp-Gα peptide delivery to the PLA with electroporation/sonoporation: ERPs and AF inducibility with vagal stimulation; type: in vivo, canine
Method: High-density epicardial mapping was performed in the PVs (2×2 electrodes), the PLA (7×3 electrodes) and the left atrial appendage (LAA) (7×3 electrodes) of canine subjects. Effective refractory periods (ERPs) were obtained at baseline and in response left cervical vagal stimulation (VS) (20 Hz). Cp-Gαi2 peptide (200-330 nM) was then applied topically to the epicardial aspect of the PLA in a canine subgroup. Cp-Gαi3 peptide (200-330 nM) was then applied topically to the epicardial aspect of the PLA of a second subgroup. Electroporation was performed after the application of peptide to enhance intracellular delivery of the peptide. ERPs were then re-measured in the presence and absence of VS.
In canine subjects, high-density epicardial mapping was performed in the PVs (2×2 electrodes), the PLA (7×3 electrodes) and the left atrial appendage (LAA) (7×3 electrodes). Effective refractory periods (ERPs) were obtained at baseline and in response left cervical vagal stimulation (VS) (20 Hz). FLAG-tcp-Gα peptides (200 nM-3 μM of cp-Gαi1/2 (N=8 canine subjects), cp-Gαi3 (N=4 canine subjects), or random-sequence cp-GαoR peptide (N=3 canine subjects) were injected into the PLA epicardium of the canine subjects followed by either sonoporation or electroporation. In a subgroup of the canine subjects, sonoporation or electroporation alone was performed without introduction of cp-Gαi peptide. ERPs were then re-measured in the presence and absence of VS. In a separate set of control animals, ERPs were measured before and after the administration of systemic autonomic blockade with propranolol (0.2 mg/kg)+atropine (0.04 mg/kg).

[7] = system: canine subject atrial cardiomyocytes; experiment: Toxicity by rapid automated tetrazolium dye based assay (MTT); type: cell-based; conditions: 5 μM peptide
[8] = 200 nM-3 μM injected into PLA + sono/electroporation
[9] = during VS, after peptide delivery into PLA

In the case of `C[N+](C)(C)CCOC(N)=O` [CCh, carbachol, reference compound], the “effect on cellular Ca2+ transients” value ([1]; 10 μM CCh (M2R saturating), field-stimulated myocytes) was “nearly eliminated”.

For `CC(C)NCC(O)c1ccc(O)c(O)c1` (stereo not shown) [ISO, isoproterenol], the “effect on Ca2+ transients” value [2] was “appreciably augmented” and the “effect on mean ERP compared to PROP” value [3] was “significantly shortened”.

`CCN(Cc1ccncc1)C(=O)C(CO)c1ccccc1` (stereo not shown) [tropicaimide] was tested, and the “VS-induced ERP shortening” value ([4]; 1% tropicaimide topically to PLA, PLA, PV and LAA) was “significantly attenuated; also recorded: either entirely eliminated or at least significantly attenuated”, the “decrease in AF inducibility” value ([4]; 1% tropicaimide topically to PLA, vagal stimulation) was 92% and the “AF induction with extrastimulus testing” value ([4]; after 1% tropicaimide to PLA, presence or absence of vagal stimulation) was “could not induced”.

In the case of IANNLRGCGLY [Gαo1 minigene], the “CCh induced ERP shortening” value [5] was “significant reduction” and the “vagal induced ERP shortening” value [5] was “significant reduction”.

In the case of “cp-Gαi2: chimeric peptide: cell-penetrating poly-arginine N-terminal sequence and C-terminal last 11 residues of Gαi (IKNNLKDCGLF; also: cell-penetrating poly-arginine N-terminal sequence, length not given here)”, the “attenuation of CCh effect on Ca2+ transients” value ([1]; 0.1-3 μM peptide superfusion 10-20 min, CCh) was “significantly attenuate” and the “VS induced ERP shortening” value ([6]; 200-330 nM topical to PLA + electroporation, PLA, PV and LAA) was “significantly attenuated”.

With “cp-Gαi peptide: cell-penetrating Gαi C-terminal peptide (cp-Gαi1/2 or cp-Gαi3), isoform not specified at the place (IKNNLKDCGLF; also: cell-penetrating sequence attached, not shown)” the “enhancement of cell viability” value [7] was ~8%, the “VS-induced ERP shortening in the LAA” value [6, 8] was “Elimination” and the “VS-induced ERP shortening in the PLA” value [6, 8] was “eliminated”. For the same molecule, the “ERP heterogeneity (coefficient of variation of all ERPs in PLA)” value ([6]; after peptide application) was “no change”, the “AF inducibility in the presence of VS” value ([6]; after peptide delivery to PLA) was “significantly decreased” and the “reduction in AF inducibility during VS” value ([6]; compared to vagal stimulation at baseline) was 69%. For the same molecule, the “AF episodes >5 seconds in duration induced” value [6, 9] was 10 episodes, the AF inducibility index [6, 9] was 0.05 and the “atrial or ventricular arrhythmias induced by peptide injection” value ([6]; with or without sono/electroporation) was “No atrial or ventricular arrhythmias were induced”.
